“Also recorded” adds a separate entry of the source. Like-named read-outs stand apart in the source and are kept apart here. Blank lines part the entries; values can stand above or below the molecule they belong to.
Assays:
RARs = assay: binding to RARs (subtypes stated together in text)
Experimental: (§1) For active retinoids, IC50 values were determined by titration with varying concentrations of UAB retinoids.

HL-60 cells = assay: retinoid induction of differentiation of HL-60 cells (NBT); format: cell-based; details: Homo sapiens, HL-60, 96 h; 4-day induction of differentiation; read-out: ED50 (nM) HL-60
Experimental: (§2) Human leukemia cell line HL-60 and NB4 were used for measuring the ability of retinoids to induce terminal differentiation. Both cell lines are predominantly promyelocytes and are induced by retinoic acid to mature to cells with many characteristics of mature granulocytes. The induction of this differentiation is the basis for assaying one of the biological activities of retinoic acid analogues. For the differentiation assay, HL-60 or NB4 cells were grown in nutrient medium with fetal bovine serum as detailed by Breitman (15).
(§3) The percentage of cells that gained this marker was measured microscopically. The percentage of positive cells was then plotted as a function of the retinoid concentration to determine ED50 and ED30 values used in the formation of isoboles.

NB4 cells = assay: retinoid induction of differentiation of NB4 cells (NBT); format: cell-based, Human; details: for EC50: NB-4, 96 h, read-out: ED50 (nM) NB4
Experimental: NB4 cells were obtained from Dr. Waxman after he received them from Dr. M. Lanotte. […] The cell were grown at 37° C. in a humidified atmosphere of 5% CO2 in air. Cell density was estimated on an electronic particle counter (Coulter electronic, Hialeah, Fla.) and cell viability with trypan bleu dye exclusion.
as §2, §3

JMML cells = assay: inhibition of JMML spontaneous CFU-GM colony formation; details: Homo sapiens
Experimental: Mononuclear cells were separated by density gradient centrifugation, washed, and frozen in aliquots. […] No growth factors or other exogenous stimuli were added to the cultures. UAB retinoids and retinoic acid isomers were dissolved in either 100% ethanol or DMSO. Appropriate dilutions were made, and controls using the respective ethanol or DMSO concentration were set up in parallel. Varying doses of retinoids were added only once, 24 hours after initiation of the soft agar assays, by pipetting the retinoid solution on top of the soft agar and allowing the solution to enter the agar and interact with the cells by diffusion. The cultures were incubated for 14 days at 37° C. in a humidified atmosphere with 5% CO2.

RARα [1] = target: T1, RARα (Homo sapiens, UniProt P10276); assay: nuclear receptor radiolabeled competition binding, RARα
T1 sequence (P10276 1-462): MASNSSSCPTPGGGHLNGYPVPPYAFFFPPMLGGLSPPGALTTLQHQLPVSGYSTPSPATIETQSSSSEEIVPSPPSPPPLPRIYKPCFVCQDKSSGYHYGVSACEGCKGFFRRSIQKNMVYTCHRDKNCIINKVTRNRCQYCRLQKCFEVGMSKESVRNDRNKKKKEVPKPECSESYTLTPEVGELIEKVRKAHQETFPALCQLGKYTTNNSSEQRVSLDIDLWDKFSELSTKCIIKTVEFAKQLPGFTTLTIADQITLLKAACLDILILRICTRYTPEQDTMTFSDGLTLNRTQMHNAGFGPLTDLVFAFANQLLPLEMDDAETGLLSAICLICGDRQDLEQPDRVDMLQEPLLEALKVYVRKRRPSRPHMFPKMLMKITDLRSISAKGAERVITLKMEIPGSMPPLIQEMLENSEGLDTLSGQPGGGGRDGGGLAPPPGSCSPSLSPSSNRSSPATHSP
Experimental: as §1

RARβ [2] = target: T2, RARβ (Homo sapiens, UniProt P10826); assay: nuclear receptor radiolabeled competition binding, RARβ
T2 construct: expressed in transfected cells; host or cells: CV-1 cells
T2 sequence (P10826 1-455): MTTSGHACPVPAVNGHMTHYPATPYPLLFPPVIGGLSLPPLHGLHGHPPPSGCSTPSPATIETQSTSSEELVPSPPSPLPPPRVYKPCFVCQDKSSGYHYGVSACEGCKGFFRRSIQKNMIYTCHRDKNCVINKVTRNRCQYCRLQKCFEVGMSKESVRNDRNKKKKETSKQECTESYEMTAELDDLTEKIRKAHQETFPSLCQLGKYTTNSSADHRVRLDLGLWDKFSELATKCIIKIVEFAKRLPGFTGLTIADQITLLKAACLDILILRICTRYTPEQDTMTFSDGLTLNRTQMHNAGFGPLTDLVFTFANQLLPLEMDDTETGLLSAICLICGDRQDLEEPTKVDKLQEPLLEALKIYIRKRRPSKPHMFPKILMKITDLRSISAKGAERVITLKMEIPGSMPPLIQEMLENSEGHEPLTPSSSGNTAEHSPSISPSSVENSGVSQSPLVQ
Experimental: as §1

RARγ [3] = target: T3, RARγ (Homo sapiens, UniProt P13631); assay: nuclear receptor radiolabeled competition binding, RARγ
T3 sequence (P13631 1-454): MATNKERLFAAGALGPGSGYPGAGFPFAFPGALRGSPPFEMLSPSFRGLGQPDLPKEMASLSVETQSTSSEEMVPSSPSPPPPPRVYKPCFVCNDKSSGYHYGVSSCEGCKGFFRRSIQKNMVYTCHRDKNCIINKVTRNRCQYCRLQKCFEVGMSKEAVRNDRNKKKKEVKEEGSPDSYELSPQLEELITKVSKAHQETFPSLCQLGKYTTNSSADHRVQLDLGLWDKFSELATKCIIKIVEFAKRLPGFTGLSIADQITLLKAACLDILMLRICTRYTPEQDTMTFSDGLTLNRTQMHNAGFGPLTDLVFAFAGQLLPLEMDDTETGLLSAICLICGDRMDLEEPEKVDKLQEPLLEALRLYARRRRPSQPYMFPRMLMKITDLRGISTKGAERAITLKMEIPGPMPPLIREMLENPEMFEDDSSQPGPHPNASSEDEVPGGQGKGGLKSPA
Experimental: as §1

RARα [4] = target: T1, RARα; assay: cell-based
Experimental: (§4) These assays were performed in CV-1 cells with the RAR or RXR gene and the chloramphenicol acetyltransferase (CAT) reporter gene containing TREpal with a thymidine kinase promoter [(TREpal)2 -tk-CAT]. Twenty-four hours after transfection, cells were treated with a single dose of retinoid and the cell extracts were assayed for b-galactosidase and CAT activity. The antagonistic effects of UAB30 retinoids on the transcription of RAR-α were also determined in CV-1 cells. The methods are nearly identical to those used to perform transcriptional assays. These studies utilized the CAT reporter gene [(TREpal)2 -tk-CAT]. […] After 24 hours, cells were harvested and the transcriptional effects were measured in relative CAT activity, after correction with β-galactosidase activity for transfection efficiency. […] Experiments were performed in triplicate and the data were averaged.
(§5) UAB30 isomers were evaluated in assays which measures their functional activity within cells to induce RARα-, RARβ-, and RARγ-mediated transcriptional activity. CV-1 cells were transiently transfected with DNA plasmid from the appropriate RAR subtype and (TREpal)2 -tk-CAT (9, 19).

RARβ [5] = target: T2, RARβ; assay: RARβ-mediated transcriptional activation in CV-1 cells; format: cell-based
Experimental: as §4, §5

RARγ [6] = target: T3, RARγ; assay: RARγ-mediated transcriptional activation in CV-1 cells; format: cell-based
Experimental: as §4, §5

RARα/RXRα = target: T4, RARα/RXRα (Homo sapiens, UniProt P10276+P19793); assay: cell-based
T4 sequence (P10276 1-462): T1 sequence (P10276 1-462)
T4 sequence (P19793 1-462): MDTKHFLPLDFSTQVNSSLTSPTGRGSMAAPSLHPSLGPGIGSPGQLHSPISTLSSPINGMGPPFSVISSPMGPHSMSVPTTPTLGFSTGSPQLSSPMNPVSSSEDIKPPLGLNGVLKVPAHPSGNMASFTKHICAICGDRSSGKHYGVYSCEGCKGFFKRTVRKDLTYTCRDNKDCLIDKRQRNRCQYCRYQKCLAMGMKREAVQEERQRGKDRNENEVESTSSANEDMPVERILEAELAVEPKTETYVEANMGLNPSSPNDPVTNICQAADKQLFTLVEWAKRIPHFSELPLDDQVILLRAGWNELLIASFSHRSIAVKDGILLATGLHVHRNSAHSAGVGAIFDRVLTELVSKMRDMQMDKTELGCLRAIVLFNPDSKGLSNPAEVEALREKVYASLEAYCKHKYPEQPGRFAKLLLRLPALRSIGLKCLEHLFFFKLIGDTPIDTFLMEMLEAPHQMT
Experimental: as §4

mouse skin papilloma [7] = assay: mouse skin antipapilloma assay; details: 45.9 nmol dose
Experimental: The mouse skin antipapilloma assay measured the ED50 values for retinoid tumor inhibition on the dorsal skin of mice. The inhibition of mouse skin papilloma by retinoids was performed according to a modification of the procedure developed by Verma and Boutwell (14) as reported previously by Muccio et al. (8).
The UAB30 retinoids were evaluated next for their activity in preventing the chemical induction of papillomas on mouse skin (14).

mouse skin papilloma [8] = details: 45.9 nmol dose; ref (8); cited from earlier work
RXRα [9] = target: T5, RXRα (Homo sapiens, UniProt P19793); assay: RXRα homodimer-mediated transcriptional activation in CV-1 cells; format: cell-based
Experimental: as §4

RARα [10] = target: T1, RARα; details: taken from Alam et al (9); cited from earlier work
RARβ [11] = target: T2, RARβ; details: taken from Alam et al (9); cited from earlier work
RARγ [12] = target: T3, RARγ; details: taken from Alam et al (9); cited from earlier work
RXRα [13] = target: T5, RXRα; details: taken from Alam et al (9); cited from earlier work
[14] = tested on: juvenile myelomonocytic leukemia (JMML); details: children with JMML; cited from earlier work
[15] = read-out: normalized percent inhibition of CFU-GM colony growth, patient J83 (%)
[16] = read-out: normalized percent inhibition of CFU-GM colony growth, patient J84 (%)
[17] = read-out: normalized percent inhibition of CFU-GM colony growth, patient J83 (%), 10^-6 M
[18] = read-out: normalized percent inhibition of CFU-GM colony growth, patient J83 (%), 10^-7 M
[19] = read-out: normalized percent inhibition of CFU-GM colony growth, patient J84 (%), 10^-6 M

SMILES: CC(=C/C(=O)O)/C=C/C=C(C)/C=C1\CCCc2ccccc21 [(13Z)-UAB30, (2E,4E,6E,8E)-8-(3',4'-Dihydro-1'(2'H)-naphthalen-1'-ylidene)3,7-dimethyl-2,4,6-octatrienoic acid]
- binding to the RAR subtypes (RARs): ineffective binder
- EC50 (HL-60 cells): > 10000 nM
- EC50 (NB4 cells; Homo sapiens): > 10000 nM
- inhibition at 0.1 µM (JMML cells; [15]): 82%
- inhibition at 1 µM (JMML cells; [15]): 88%
- inhibition at 0.01 µM (JMML cells; [16]): 25%
- inhibition at 0.1 µM (JMML cells; [16]): 72%
- inhibition at 1 µM (JMML cells; [16]): 80%

SMILES: CCC1=C(C(C)C)/C(=C/C(C)=C\C=C\C(C)=C\C(=O)O)CCC1 [(9Z)-UAB8]
- IC50 (RARα [1]): > 1000 nM
- IC50 (RARβ [2]): > 1000 nM
- IC50 (RARγ [3]): > 1000 nM
- EC50 (RARα [4]): > 1 µM
- EC50 (RARβ [5]): > 2000 nM
- EC50 (RARγ [6]): 190 nM
- EC50 (RARα/RXRα): > 2 µM
- EC30 (NB4 cells; Homo sapiens, NB-4, 72 h, retinoid alone, 3 days, read-out: ED30 NB4 cell differentiation): > 3000 µM
- prevention of papilloma (tumor) formation (mouse skin papilloma [7]): 54%

SMILES: CC1=C(/C=C/C(C)=C\C=C\C(C)=C\C(=O)O)C(C)(C)CCC1 [(9Z)-RA, 9-cis-retinoic acid, reference compound]
- NB4 cell differentiation (NB4 cells; retinoid alone): comparable to that of ATRA
- prevention of papilloma (tumor) formation (mouse skin papilloma [8]): 95%
- inhibition at 0.1 µM (JMML cells; read-out: normalized percent inhibition of CFU-GM colony growth, patient J43 (%), 10^-7 M): 98%
- inhibition at 1 µM (JMML cells; [17]): 82%
- inhibition at 0.1 µM (JMML cells; [18]): 72%
- inhibition at 1 µM (JMML cells; [19]): 95%

SMILES: CC(=C\C=C\C(C)=C\C(=O)O)/C=C1\CCCc2ccccc21 [(all-E)-UAB30, (2E,4E,6E,8E)-8-(3',4'-Dihydro-1'(2'H)-naphthalen-1'-ylidene)3,7-dimethyl-2,4,6-octatrienoic acid]
- EC50 (HL-60 cells): > 10000 nM
- EC50 (NB4 cells; Homo sapiens): > 10000 nM
- dose up to which not active in NB4 cell differentiation (NB4 cells; retinoid alone, 3 days): > 40 mM
- NB4 cell differentiation (NB4 cells; retinoid alone, listed as all-trans-UAB30): inactive in NB4 cell differentiation; also recorded: not induce differentiation of NB4 cells
- prevention of papilloma (tumor) formation (mouse skin papilloma [7]): 59%
- inhibition at 0.1 µM (JMML cells; [15]): 68%
- inhibition at 1 µM (JMML cells; [15]): 72%
- inhibition at 0.01 µM (JMML cells; [16]): 28%
- inhibition at 0.1 µM (JMML cells; [16]): 48%
- inhibition at 1 µM (JMML cells; [16]): 57%

- EC50 (HL-60 cells): > 10000 nM
- EC50 (NB4 cells; Homo sapiens, 4-day induction of differentiation): > 10000 nM
SMILES: CCC1=C(C(C)C)/C(=C/C(C)=C\C=C\C(C)=C/C(=O)O)CCC1 [(9Z, 13Z)-UAB8]

SMILES: CCC1=C(C(C)C)/C(=C/C(C)=C/C=C/C(C)=C\C(=O)O)CCC1 [(13Z)-UAB8]
- EC50 (RARα [4]): 0.051 µM
- EC50 (RARγ [6]): 42 nM
- EC50 (RXRα [9]): > 2 µM
- EC50 (RARα/RXRα): 0.45 µM
- EC50 (HL-60 cells): > 10000 nM
- IC50 (RARα [10]): 900 nM
- IC50 (RARβ [11]): 371 nM
- IC50 (RARγ [12]): 708 nM
- IC50 (RXRα [13]): > 1000 nM
- inhibition at 1 µM (JMML cells; read-out: normalized percent inhibition of CFU-GM colony growth, patient J43 (%)): 80%
- inhibition at 0.01 µM (JMML cells; [16]): 0%
- inhibition at 0.1 µM (JMML cells; [16]): 18%

SMILES: CC1=C(/C=C/C(C)=C/C=C/C(C)=C\C(=O)O)C(C)(C)CCC1 [(13Z)-RA, reference compound]
- share of children in whom excessive myeloproliferation is controlled [14]: up to 50%
- inhibition at 1 µM (JMML cells; read-out: normalized percent inhibition of CFU-GM colony growth, patient J43 (%), 10^-6 M): 109%
- inhibition at 1 µM (JMML cells; [17]): 94%
- inhibition at 0.1 µM (JMML cells; [18]): 86%
- inhibition at 1 µM (JMML cells; [19]): 87%
